The source of these data is patent publication US5733719A, “Method of making an assay compound” (priority 1995, dated 1998).

One series has as its system Lymphs. Put plainly: Peptidases to distinguish leukemia from non-leukemia, lymphocytes. Format: cell-based, human. Also noted: unit not given here. The source says:
(§1) Artificial intelligence was used to analyze data of cellular enzyme functions, and determine normal and disease states. Peptidases were used to distinguish leukemia from non-leukemia (output pattern). For input patterns lymphocyte and granulocyte cell types were used with aminopeptidases, cathepsins and dipeptidylpeptidase enzyme activities. In this Example, illustrated in Tables 6A-6C, three normals and three leukemia patients were used as known output patterns for the neural network to learn (in practice, the larger the learning set the more accurate unknown prediction will be). Unknowns were then presented to the learned algorithm as shown in the test case examples. Clinical diagnosis was confirmed by physicians. The trained neural network was able to correctly classify the leukemia from the non-leukemia.

Another series has as its system Grans. Kind of series: Peptidases to distinguish leukemia from non-leukemia, granulocytes. Format: cell-based, human. Also noted: unit not given here.
Source text: as §1

Another series relates to enzyme. Kind of series: Effect of dithioerythritol (DTE) on substrate sensitivity. As to conditions: dithioerythritol (DTE) at 1 mM. The source says: Modulators are components used to […] the sensitivity of the enzyme for the leaving group. The modulators speed up or slow down the activity of an enzyme by changing the active site. […] Preferred modulators for particular enzymes are included in Table 1.

Series [1] deals with acute lympholytic Ficoll prepared lymphocytes. Put plainly: Amino peptidase activity in acute lymphocytic leukemia lymphocytes. As to conditions: FIG. 4B, log fluorescence at 525 nm v. time. In kind it is cell-based. The source says: The cell's ability to fight off an invader lies within its genetics and therefore cell type. The "readiness" however of any genetically capable group of cells to defend is different. A measure of this "readiness" is manifest in the available proteolytic enzymes contained within vacuoles or on the surface of the cell. The assay compound hydrolysis rate increases with increased mass of enzymes giving a picture of immune competence both in number of cells and activity level. […] Images were generated using Universal Imaging.

For the next series, the system named is aminopeptidase. Put plainly: Inhibition of aminopeptidase reaction with (H-L-Asp)2 rhodamine 110. In kind it is biochemical. As to conditions: approximately 10 mM. The source says:
The chemical nature of the buffer is important to the reactivity of the assay compound with the cellular enzymes. […] In addition, the assay compound hydrolysis by the enzyme occurs at an increased rate of reaction.

The test system of a further series is cells. As to conditions: even when buffered.
Series [2] is described as follows: Effect of sodium chloride on dipeptide reagent. Conditions: 7mM, pH range of 6.5 to 8.7. The source says: Inhibitors and poisons (or toxins) are components that can be added to reduce the activity of non-targeted enzymes that provide competing reactions for the leaving group. Inhibitors are usually very selective for a particular enzyme. For example, EDTA only works with enzymes requiring Ca^+2, Mg^+2 and some other metals. […] Preferred inhibitors for particular enzymes are included in Table 1.

A short description of a further series: Native free fluorescence. In kind it is physicochemical. The source says: Assays for peptidases using assay compounds generate fluorescence generally in the range of 10^-5 to 10^-6 Molar free rhodamine 110. Therefore, it is preferred that the free rhodamine 110 and blocked peptide impurities in the assay reagent should be removed to a concentration of less than the fluorescence generated by about 1×10^-6 M and more preferably less than the fluorescence generated by about 10^-7 Molar free indicator group. This amounts to a 100,000 photon count using rhodamine 110 as a standard at 10^-7 -10^-8 M, preferably 5×10^-8 M in a 1 cm path length cuvette when measured over 10 min. on a photon counting spectrofluorometer manufactured by the SLM Company of Chicago, Ill. This corresponds to a use level on the flow cytometer where no cellular false positive can be detected for a 10 minute period at the highest sensitivity setting. […] The presence of impurities causes a decrease in the storage stability of the compound, resulting in an increased autohydrolysis which leads to increased background fluorescence. A compound should be free of impurities such that when the compound (or reagent containing the compound) is stored at 4° C. for 30 days, preferably 90 days, more preferably 180 days, most preferably one year, the background fluorescence increases less than 10%, preferably less than 5%, most preferably less than 1% over these time periods, respectively. […]

Where a name gives a salt, the structure may show the parent alone.

Description for cells: Viability is confirmed with Trypan Blue or PI-FDA over a time period of 10 seconds to 30 minutes. If the viability of the cell sample at between one and three million cells/mL decreases by10% then the salt of the compound is rejected and another salt of the assay compound is synthesized.

For the compound `NCC(=O)Nc1ccc2c(c1)Oc1cc(NC(=O)CN)ccc1C21OC(=O)c2ccccc21` [GLY, (Gly)2 Rho 110], the enzyme activity in the series on Lymphs (J4 11/21/91 acute leuk.) worked out at 14.02; in the series on Lymphs (J4 12/2/91 AL), 27.32; in the series on Lymphs (J4 12/3/91 acute leuk.) it was 31.51; in the series with Lymphs (J5 11/27/91 AML), 28.36; with Lymphs (J19 11/27/91 CLL) it was 11.39; in the series with Lymphs (J22 12/2/91 AML), 24.50. The enzyme activity in the series with Lymphs (J22 12/9/91 AML) is 27.14; in the series on Lymphs (N99° normal) it was 30.68; in the series on Lymphs (N191 normal) it was 43.57; in the series on Lymphs (N192 normal) it was 37.47; with Lymphs (N193 normal) it was 39.30; with Lymphs (N194 normal) it was 39.76. In addition, the enzyme activity is on record as 48.18 in the series on Lymphs (N195 normal); 42.96 with Lymphs (N197 normal); 42.28 with Lymphs (N200 normal); 45.32 in the series on Lymphs (N201 normal); 44.55 with Lymphs (N202 normal); 55.56 with Lymphs (N206 normal). Besides, the enzyme activity in the series on Lymphs (P68 tachycardia) came out at 59.29; in the series with Lymphs (P69 pancreatic CA), 67.38; in the series with Lymphs (P70 cirrhosis/hemobilia), 54.84; with Lymphs (P71 ac. pyelonephritis), 41.93; in the series on Grans (J4 11/21/91 acute leuk.), 27.79; with Grans (J4 12/2/91 AL) it was 47.74. Further, the enzyme activity in the series with Grans (J4 12/3/91 acute leuk.) is 48.53; in the series on Grans (J5 11/27/91 AML), 56.33; with Grans (J19 11/27/91 CLL), 48.80; with Grans (J22 12/2/91 AML), 34.02; in the series on Grans (J22 12/9/91 AML) it was 38.47; in the series on Grans (N99° normal), 45.00. Further, the enzyme activity in the series with Grans (N191 normal) was determined as 73.20; in the series with Grans (N192 normal), 43.67; with Grans (N193 normal), 63.33; with Grans (N194 normal), 60.30; with Grans (N195 normal), 79.13; with Grans (N197 normal), 76.88. Also, the enzyme activity in the series with Grans (N200 normal) came to 59.39; in the series on Grans (N201 normal) it was 75.48; in the series with Grans (N202 normal), 66.22; in the series with Grans (N206 normal), 91.93; in the series on Grans (P68 tachycardia), 100.00; with Grans (P69 pancreatic CA) it was 88.04. In addition, the enzyme activity is reported as 88.42 in the series on Grans (P70 cirrhosis/hemobilia) and 59.35 with Grans (P71 ac. pyelonephritis). Besides, the “effect of DTE on sensitivity” value in the series with enzyme was “decreases the sensitivity”.
Turning to `CC(C)C[C@H](N)C(=O)Nc1ccc2c(c1)Oc1cc(NC(=O)[C@@H](N)CC(C)C)ccc1C21OC(=O)c2ccccc21` [LEU, (Leu)2 Rho 110], in series [1], the enzymatic activity result is “lost their enzymatic activity”.
Regarding `O=C1OC2(c3ccc(NC(=O)[C@@H]4CCCN4)cc3Oc3cc(NC(=O)[C@@H]4CCCN4)ccc32)c2ccccc21` [PRO, (H--L--Pro)2 Rho 110-2TFA], the enzyme activity in the series on Lymphs (J4 11/21/91 acute leuk.) is 0.47; in the series on Lymphs (J4 12/2/91 AL), 0.29; in the series with Lymphs (J4 12/3/91 acute leuk.) it was 0.24; in the series on Lymphs (J5 11/27/91 AML) it was 0.89; in the series with Lymphs (J19 11/27/91 CLL), 0.44; in the series on Lymphs (J22 12/2/91 AML), 0.40. For the same compound, the enzyme activity with Lymphs (J22 12/9/91 AML) was 0.44; in the series with Lymphs (N99° normal), 1.02; with Lymphs (N191 normal), 0.69; in the series with Lymphs (N192 normal) it was 1.14; with Lymphs (N193 normal), 0.95; in the series with Lymphs (N194 normal), 0.86. Also, the enzyme activity worked out at 0.88 in the series with Lymphs (N195 normal); 0.57 in the series on Lymphs (N197 normal); 0.74 with Lymphs (N200 normal); 1.10 in the series on Lymphs (N201 normal); 0.89 in the series on Lymphs (N202 normal); 1.28 in the series with Lymphs (N206 normal). In addition, the enzyme activity with Lymphs (P68 tachycardia) came out at 0.70; in the series with Lymphs (P69 pancreatic CA) it was 0.66; with Lymphs (P70 cirrhosis/hemobilia) it was 0.56; with Lymphs (P71 ac. pyelonephritis), 0.52; with Grans (J4 11/21/91 acute leuk.) it was 5.77; in the series on Grans (J4 12/2/91 AL), 3.59. For the same compound, the enzyme activity is recorded as 3.68 in the series with Grans (J4 12/3/91 acute leuk.); 5.92 in the series on Grans (J5 11/27/91 AML); 5.50 in the series on Grans (J19 11/27/91 CLL); 4.03 in the series with Grans (J22 12/2/91 AML); 3.53 in the series with Grans (J22 12/9/91 AML); 4.85 in the series with Grans (N99° normal). The enzyme activity with Grans (N191 normal) is listed as 4.34; in the series with Grans (N192 normal) it was 4.34; with Grans (N193 normal), 4.75; in the series with Grans (N194 normal), 3.75; with Grans (N195 normal), 4.70; in the series on Grans (N197 normal), 3.76. Moreover, the enzyme activity was determined as 4.04 in the series with Grans (N200 normal); 6.42 with Grans (N201 normal); 4.96 in the series with Grans (N202 normal); 6.13 in the series with Grans (N206 normal); 7.19 with Grans (P68 tachycardia); 5.70 in the series on Grans (P69 pancreatic CA). In addition, the enzyme activity was 0.66 in the series with Grans (P70 cirrhosis/hemobilia) and 6.33 in the series with Grans (P71 ac. pyelonephritis). Further, the “effect of DTE on sensitivity” value in the series with enzyme is “decreases the sensitivity”.
Take `[Ca+2].[Cl-].[Cl-]` [calcium chloride]: in the series on aminopeptidase, the “inhibition of enzyme reaction with (H-L-Asp)2 rhodamine 110” value was “inhibitory”.
With `Br.Cc1ncc(C)n2nc(CCc3nc(-c4ccccc4)cn3C)nc12` [hydrogen bromide (HBr), hydrogen bromide], the effect on cells entry in the series on cells was “kills cells”.
Consider `[Cl-].[Na+]` [sodium chloride], for which the “inhibitory effect on dipeptide reagent” value in series [2] is reported as “slightly inhibitory effect”.
As for `CC(C)C[C@H](N)C(=O)NCC(=O)Nc1ccc2c(c1)Oc1cc(NC(=O)CNC(=O)[C@@H](N)CC(C)C)ccc1C21OC(=O)c2ccccc21` [tartrate salt of (LeuGly)2 rhodamine 110, (H--L--Leu--Gly)2 Rho 110-2Tartrate], the native free fluorescence in “Native free fluorescence” was 61,000 photons.
